This is an account of results in patent US20230272002A1, “PHOTOREDOX PROTEIN MODIFICATION” (THE ROSALIND FRANKLIN INSTITUTE, priority 2020, published 2023).

The target in series [1] is T1, KDM4A (Homo sapiens, UniProt O75164).
T1 sequence (O75164 1-1064): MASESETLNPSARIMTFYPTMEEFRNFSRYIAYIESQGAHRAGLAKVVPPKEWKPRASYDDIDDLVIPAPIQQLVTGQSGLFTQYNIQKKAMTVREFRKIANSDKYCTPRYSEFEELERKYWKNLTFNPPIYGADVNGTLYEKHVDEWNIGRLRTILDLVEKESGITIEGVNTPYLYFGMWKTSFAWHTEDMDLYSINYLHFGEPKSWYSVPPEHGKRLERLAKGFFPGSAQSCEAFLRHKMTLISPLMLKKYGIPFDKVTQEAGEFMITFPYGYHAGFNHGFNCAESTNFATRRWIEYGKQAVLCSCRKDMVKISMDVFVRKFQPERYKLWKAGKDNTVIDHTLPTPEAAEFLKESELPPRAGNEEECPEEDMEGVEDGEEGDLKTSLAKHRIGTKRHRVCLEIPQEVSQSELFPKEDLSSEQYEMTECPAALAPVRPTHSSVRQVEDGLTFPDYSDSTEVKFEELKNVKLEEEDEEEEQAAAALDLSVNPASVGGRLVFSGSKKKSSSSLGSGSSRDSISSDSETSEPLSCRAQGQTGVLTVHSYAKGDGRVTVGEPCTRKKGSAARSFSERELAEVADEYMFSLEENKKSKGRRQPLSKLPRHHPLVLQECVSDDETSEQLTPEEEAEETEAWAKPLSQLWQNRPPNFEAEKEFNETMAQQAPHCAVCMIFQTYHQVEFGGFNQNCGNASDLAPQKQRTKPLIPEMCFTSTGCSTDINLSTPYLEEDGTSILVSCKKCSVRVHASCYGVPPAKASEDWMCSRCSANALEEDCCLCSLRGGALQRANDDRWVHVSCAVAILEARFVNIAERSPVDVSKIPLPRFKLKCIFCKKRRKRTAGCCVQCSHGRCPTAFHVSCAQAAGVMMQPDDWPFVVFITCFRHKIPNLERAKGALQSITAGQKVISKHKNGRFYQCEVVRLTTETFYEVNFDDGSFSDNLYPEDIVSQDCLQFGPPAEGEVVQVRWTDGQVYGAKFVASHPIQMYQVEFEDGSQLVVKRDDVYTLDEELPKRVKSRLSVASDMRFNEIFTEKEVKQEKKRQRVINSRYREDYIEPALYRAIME
Description: Zn ejection assay (TSQ Zn(II) fluorophore). To be noted: 20 μM compound, 2 μM KDM4A. It counts as biochemical. The procedure: Zn ejection assay was performed using N-(6-nethoxy-8-quinolyl)-p-toluenesulfonamide (TSQ) (Enzo) Zn(II) fluorophore as described with minor modifications28,33. In brief, assays were performed in 384 well black μCLEAR® non-binding plates (Grenier) using a reaction volume of 100 μL at 37° C. on a BMG CLARIOstar (360ex/490em). The plate was shaken (5 s, 700 rpm) before each reading, taken every 22 s for 270 cycles. Reactions consisted of […], 25 μM Ebselen or 20 μM H3 K9Bhn/H3-wt/4-bromobutylboronic acid, and those with enzyme contained 2 μM KDM4A all with 1.1% (v/v) DMSO in 50 mM HEPES (pH 7.5). Compounds and TSQ were added to the plate before initiating the assay with addition of KDM4A using the CLARIOstar injector (FIG. 4d). An internal calibration curve of ZnCl2 (0-2 μM) in 50 mM HEPES (pH 7.5) was included in each experiment to quantitate the concentrations of Zn(II) ejected. Data were normalised by subtracting a no enzyme control for that compound at each time point. Mean±standard deviation (n=3 technical replicates) was plotted for each time point using GraphPad Prism 5.0, representative data from three biological replicates is shown.
The rate of Zn(II) ejection was calculated from the slope of linear regression plotted over the linear region of Zn(II) ejection (from 946-3982 s) plotted in GraphPad Prism 5.0. […]

Series [2] in a line: Cyclic voltammetry. It counts as physicochemical. As to the method:
Catechol and 4-bromobutylboronic acid were obtained from Sigma-Aldrich and used as received without further purification. All solutions were made up using ultrapure water of resistivity not less than 18.2 MQ cm (Millipore) at 25° C. and degassed thoroughly with nitrogen (99.998%, BOC Gases plc) before use. Phosphate buffered saline (PBS) solution (pH=6.0) consisting of 43.85 mM sodium phosphate monobasic and 6.15 mM potassium phosphate dibasic.
All voltammetric measurements were recorded using an Autolab PGSTAT30 computer controlled potentiostat (Metrohm, Utrecht, The Netherlands). Experiments were performed in a thermostatted (25.0+0.3° C.) Faraday cage using a three-electrode set-up. A glassy carbon macroelectrode (diameter 3.0 mm, CH Instrument) was used as the working electrode, a saturated calomel electrode (SCE) as the reference electrode (SCE, ALS distributed by BASi, Tokyo, Japan) and a graphite rod as the counter electrode. Prior to each voltammetric experiment, renewal of the working electrode surface was achieved by polishing with alumina slurries in the size sequence 1.0 m, 0.3 m and 0.05 m, (Buehler Ltd, USA) followed by sonication in water and drying with nitrogen.

Series [3] concerns the target T2, Sirt2 (Homo sapiens, UniProt Q8IXJ6).
T2 construct: His tag (inferred from the HisTrap purification); made in house; host or cells: E. coli BL21(DE3)
T2 sequence (Q8IXJ6 1-389): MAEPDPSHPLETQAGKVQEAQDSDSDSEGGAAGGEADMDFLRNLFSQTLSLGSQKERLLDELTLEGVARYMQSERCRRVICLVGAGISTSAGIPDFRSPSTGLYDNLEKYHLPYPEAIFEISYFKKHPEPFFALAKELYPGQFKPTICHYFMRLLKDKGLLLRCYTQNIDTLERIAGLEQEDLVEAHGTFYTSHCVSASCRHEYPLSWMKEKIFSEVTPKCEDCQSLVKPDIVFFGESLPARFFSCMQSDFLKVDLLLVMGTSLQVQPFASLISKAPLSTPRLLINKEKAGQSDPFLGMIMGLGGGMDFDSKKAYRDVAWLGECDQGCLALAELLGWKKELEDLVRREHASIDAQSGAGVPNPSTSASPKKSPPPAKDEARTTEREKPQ
Description: Sirt2 deacylation of acylated histone H3-K18 (intact-protein LC-MS timecourse, 19F-NMR). The settings on record: deacylation of γ-F2 labelled KAc side chain, protein 19F NMR. It counts as biochemical. The text has this:
H3-KAc18 and H3-KBzl8 were generated using BACED reagents (FIG. 4A).
The pySOOF reagents were also used to generate corresponding H—F labeled side chain analogues such as K[γF2]Ac and K[γF2] sidechains 2 k and 2f, respectively. […] Other sidechain variations could similarly be distinguished at different sites in the same protein e.g. H3.1-K9→H3.1-KAc9→H3.1-Kme39 (sidechains 2f→2 k→2j=δF −99.0→−98.0→−99.2) or H3.1-M27 (sidechain 2×δF −74.8) or H3.1-E9 (sidechain 2u δF −103.3). In this way, the diverse scope of available further sidechains allows this approach to be explored in numerous additional directions such as e.g. monitoring heteroatom variation (e.g. N→O, ‘deaza-oxo’ variant KOAc, sidechain 2r for H3.1-K18→H3.1-KOAc18, sidechains 2 k→2r) or even precisely assaying sidechain Met oxidation state (H3.1-M27→H3.1-Mox27→H3.1-Mox27, sidechains 2x→2y→2z).
Due to the site-selectivity of the insertion of this label and its excellent sensitivity in ‘zero background’, not only could chemical shift of ^19F signal be ‘read’ but also its multiplicity through correlated simulation (FIG. 4B).

Turning to `OB(O)CCCCBr` [Example 1u-precursor, 4-bromobutylboronic acid], the “Time-dependent release of Zn(II) from KDM4A observed” value in series [1] is listed as “not”. Moreover, the “Zn(II)-ejection rate” value in series [1] (50 mM HEPES pH 7.5, 37° C., slope of linear region 946-3982 s) is 0.805 ± 0.010 nM/min. In addition, in series [2] (absence of catechol), the “oxidation in the absence of catechol” value is on record as “no oxidation was observed”. Besides, in series [2] (catechol-enhanced conditions (1:12), saturated calomel reference electrode), the “half potential Eox (irreversible oxidation event)” value is “+0.93 V”.

B1: Sirt2: HDAC deacylation enzyme Sirt2 (protein, UniProt Q8IXJ6 2-389, looked up)
NAD-dependent protein …: AEPDPSHPLETQAGKVQEAQDSDSDSEGGAAGGEADMDFLRNLFSQTLSLGSQKERLLDELTLEGVARYMQSERCRRVICLVGAGISTSAGIPDFRSPSTGLYDNLEKYHLPYPEAIFEISYFKKHPEPFFALAKELYPGQFKPTICHYFMRLLKDKGLLLRCYTQNIDTLERIAGLEQEDLVEAHGTFYTSHCVSASCRHEYPLSWMKEKIFSEVTPKCEDCQSLVKPDIVFFGESLPARFFSCMQSDFLKVDLLLVMGTSLQVQPFASLISKAPLSTPRLLINKEKAGQSDPFLGMIMGLGGGMDFDSKKAYRDVAWLGECDQGCLALAELLGWKKELEDLVRREHASIDAQSGAGVPNPSTSASPKKSPPPAKDEARTTEREKPQ
On to B1, for which, in series [3], the L/D selectivity preference is given as more than 14 and the “ΔΔG of L/D selectivity” value was more than 6.6 kJ/mol.
